According to patent US20240158446A1, “CYCLIC COMPOUND HAVING SELECTIVE INHIBITORY ACTION ON KRAS OVER HRAS AND NRAS” (CHUGAI SEIYAKU KABUSHIKI KAISHA, priority 2021, published 2024):
Where two headings read alike, the source gives them in different places. Each block holds one compound with its values, some of them ahead of it.

Tests used:
[1] = target: GDP-bound KRAS wild-type protein (Homo sapiens, UniProt P01116); experiment: Binding to KRAS by surface plasmon resonance (SPR), Single Cycle Kinetics
[2] = target: GDP-bound NRAS wild-type protein (Homo sapiens, UniProt P01111); experiment: Binding to NRAS by surface plasmon resonance (SPR), Single Cycle Kinetics; settings: for NRAS/KRAS (ratio of KD value for NRAS to KD value for KRAS) / ratio of the KD value with respect to GDP-bound NRAS wild-type protein to the KD value with respect to KRAS: SPR; for NRAS/KRAS (ratio of KD value for NRAS to KD value for KRAS): GDP-bound NRAS wild-type protein vs GDP-bound KRAS wild-type protein; for NRAS/KRAS (ratio of KD value with respect to GDP-bound NRAS wild-type protein to KD value with respect to KRAS): SPR KD ratio NRAS/KRAS, class symbols
[3] = target: GDP-bound HRAS wild-type protein (Homo sapiens, UniProt P01112); experiment: Binding to HRAS by surface plasmon resonance (SPR), Single Cycle Kinetics; settings: for HRAS/KRAS (ratio of KD value for HRAS to KD value for KRAS) / ratio of the KD value with respect to GDP-bound HRAS wild-type protein to the KD value with respect to KRAS: SPR; for HRAS/KRAS (ratio of KD value for HRAS to KD value for KRAS): GDP-bound HRAS wild-type protein vs GDP-bound KRAS wild-type protein; for HRAS/KRAS (ratio of KD value with respect to GDP-bound HRAS wild-type protein to KD value with respect to KRAS): SPR KD ratio HRAS/KRAS, class symbols
[4] = tested on: human lung cancer strain NCI-H441;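 further: cell proliferation inhibition after four days measured by CellTiter-Glo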
[5] = SPR, Single Cycle Kinetics, 1:1 binding model, read-out: KD value with respect to GDP-bound KRAS wild-type protein
[6] = SPR, Single Cycle Kinetics, GDP-bound KRAS wild-type protein, read-out: KRAS KD
[7] = read-out: NCI-H441 cell proliferation inhibitory activity, 50% proliferation inhibitory concentration (IC50 value), NCI-H441, four days, CellTiter-Glo
[8] = SPR, Single Cycle Kinetics, 1:1 binding model, GDP-bound KRAS wild-type protein, read-out: KRAS KD
[9] = SPR Single Cycle Kinetics, GDP-bound KRAS wild-type protein, 1:1 binding model, read-out: KRAS KD

Chain of GDP-bound HRAS wild-type protein (P01112 whole entry): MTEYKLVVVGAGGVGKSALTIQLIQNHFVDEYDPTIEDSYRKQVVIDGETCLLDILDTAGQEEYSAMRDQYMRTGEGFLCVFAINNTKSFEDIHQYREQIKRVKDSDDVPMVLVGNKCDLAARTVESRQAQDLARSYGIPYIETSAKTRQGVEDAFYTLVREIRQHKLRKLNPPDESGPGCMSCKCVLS
Chain of GDP-bound KRAS wild-type protein (P01116 whole entry): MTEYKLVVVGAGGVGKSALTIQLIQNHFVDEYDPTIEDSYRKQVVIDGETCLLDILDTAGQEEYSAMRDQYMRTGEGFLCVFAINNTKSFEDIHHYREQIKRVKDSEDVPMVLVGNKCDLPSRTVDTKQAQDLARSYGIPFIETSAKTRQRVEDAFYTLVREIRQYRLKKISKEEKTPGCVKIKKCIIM
Chain of GDP-bound NRAS wild-type protein (P01111 whole entry): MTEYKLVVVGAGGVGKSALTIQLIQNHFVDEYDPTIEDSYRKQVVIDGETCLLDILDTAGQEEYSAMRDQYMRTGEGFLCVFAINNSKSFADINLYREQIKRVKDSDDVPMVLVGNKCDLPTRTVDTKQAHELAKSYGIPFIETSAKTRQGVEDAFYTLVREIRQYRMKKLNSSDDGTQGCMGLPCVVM

Kd [1, 5]: 870 nM
Kd [1, 6]: 870 nM
IC50 [4, 7]: 9250 nM
SMILES: CC[C@H](C)[C@@H]1NC(=O)[C@H](CC(C)C)N(C)C(=O)CSC[C@H](C(=O)N(C)C)N(C)C(=O)[C@H](C2CCCC2)N(C)C(=O)C2(CCCC2)NC(=O)[C@@H]2CCCN2C(=O)[C@@H](CCc2cc(F)c(C(F)(F)F)c(F)c2)NC(=O)CN(C)C(=O)[C@H](Cc2ccc(C(F)(F)F)cc2)N2CC=CC[C@@H](C2=O)N(C)C(=O)CN(C)C1=O [PP3108]
NRAS/KRAS (ratio of KD value for NRAS to KD value for KRAS) [2]: C (A compound having a KD ratio of 0.1 or more and less than 3 is denoted as C)
ratio of the KD value with respect to GDP-bound NRAS wild-type protein to the KD value with respect to KRAS [2]: C (A compound having a KD ratio of 0.1 or more and less than 3 is denoted as C)
HRAS/KRAS (ratio of KD value for HRAS to KD value for KRAS) [3]: B (a compound having 3 or more and less than 10 is denoted as B)
ratio of the KD value with respect to GDP-bound HRAS wild-type protein to the KD value with respect to KRAS [3]: B (a compound having 3 or more and less than 10 is denoted as B)

Kd [1, 8]: 0.23 nM
IC50 [4]: 32.9 nM
SMILES: CCO[C@@H]1C[C@H]2C(=O)NC3(CCC3)C(=O)N(C)[C@@H](C3CCCC3)C(=O)N(C)[C@H](C(=O)N(C)C)CC(=O)N(C)[C@@H](CC(C)(C)C)C(=O)N[C@@H]([C@@H](C)CC)C(=O)N(C)CC(=O)N(C)[C@H]3C/C=C\CCN(C3=O)[C@@H](CC3CCC(F)(F)CC3)C(=O)N(C)CC(=O)N[C@@H](CCc3cc(F)c(C(F)(F)F)c(F)c3)C(=O)N2C1 [PP1460]
NRAS/KRAS (ratio of KD value for NRAS to KD value for KRAS) ([2]; KD ratio class): A (a compound having 10 or more and less than 20 is denoted as A)
HRAS/KRAS (ratio of KD value for HRAS to KD value for KRAS) ([3]; KD ratio class): A (a compound having 10 or more and less than 20 is denoted as A)

Kd [1, 9]: 0.19 nM
IC50 [4]: 20.6 nM
SMILES: CCO[C@@H]1C[C@H]2C(=O)NC3(CC(C)(C)C3)C(=O)N(C)[C@@H](C3CCCCC3)C(=O)N(C)[C@H](C(=O)N(C)C)CC(=O)N(C)[C@@H](COC)C(=O)N[C@@H]([C@@H](C)CC)C(=O)N(C)CC(=O)N(C)[C@H]3C/C=C\CCN(C3=O)[C@@H](Cc3ccc(C)cc3)C(=O)N(C)CC(=O)N[C@@H](CCc3cc(F)c(C(F)(F)F)c(F)c3)C(=O)N2C1 [PP2659]
NRAS/KRAS (ratio of KD value with respect to GDP-bound NRAS wild-type protein to KD value with respect to KRAS) [2]: A (a compound having 10 or more and less than 20 is denoted as A)
HRAS/KRAS (ratio of KD value with respect to GDP-bound HRAS wild-type protein to KD value with respect to KRAS) [3]: A (a compound having 10 or more and less than 20 is denoted as A)

SMILES: CCO[C@@H]1C[C@H]2C(=O)NC3(CC(C)(C)C3)C(=O)N(C)[C@@H](C3CCCC3)C(=O)N(C)[C@H](C(=O)N3CCCCC3)CC(=O)N(C)[C@@H](COC)C(=O)N[C@@H]([C@@H](C)CC)C(=O)N(C3CC3)CC(=O)N(C)[C@H]3C/C=C\CCN(C3=O)[C@@H](Cc3ccc(C(F)(F)F)cc3)C(=O)N(C)CC(=O)N[C@@H](CCc3cc(F)c(C(F)(F)F)c(F)c3)C(=O)N2C1 [PP2666]
Kd [1, 9]: 0.72 nM
NRAS/KRAS (ratio of KD value with respect to GDP-bound NRAS wild-type protein to KD value with respect to KRAS) [2]: AA (a compound having 20 or more is denoted as AA)
HRAS/KRAS (ratio of KD value with respect to GDP-bound HRAS wild-type protein to KD value with respect to KRAS) [3]: AA (a compound having 20 or more is denoted as AA)
IC50 [4]: 28.6 nM

SMILES: CCC[C@H]1C(=O)N[C@@H]([C@@H](C)CC)C(=O)N2CCC[C@H]2C(=O)N(C)[C@H]2C/C=C\CCN(C2=O)[C@@H](Cc2ccc(C(F)(F)F)cc2)C(=O)N(C)CC(=O)N[C@@H](CCc2ccc(C(F)(F)F)c(OC)c2)C(=O)N2C[C@H](OCC)C[C@H]2C(=O)N(C)C2(CCC2)C(=O)N(C)[C@@H](C2CCCC2)C(=O)N(C)[C@H](C(=O)N2CCCCC2)CC(=O)N1C [PP3099]
Kd [1, 5]: 0.61 nM
Kd [1, 6]: 0.61 nM
NRAS/KRAS (ratio of KD value for NRAS to KD value for KRAS) [2]: A (a compound having 10 or more and less than 20 is denoted as A)
ratio of the KD value with respect to GDP-bound NRAS wild-type protein to the KD value with respect to KRAS [2]: A (a compound having 10 or more and less than 20 is denoted as A)
HRAS/KRAS (ratio of KD value for HRAS to KD value for KRAS) [3]: A (a compound having 10 or more and less than 20 is denoted as A)
ratio of the KD value with respect to GDP-bound HRAS wild-type protein to the KD value with respect to KRAS [3]: A (a compound having 10 or more and less than 20 is denoted as A)
IC50 [4, 7]: 13.3 nM

Kd [1, 8]: 0.15 nM
IC50 [4]: 24.6 nM
SMILES: CCO[C@@H]1C[C@H]2C(=O)NC3(CCC3)C(=O)N(C)[C@@H](C3CCCC3)C(=O)N(C)[C@H](C(=O)N3CCOCC3)CC(=O)N(C)[C@@H](CC(F)F)C(=O)N[C@@H]([C@@H](C)CC)C(=O)N(C)CC(=O)N(C)[C@H]3C/C=C\CCN(C3=O)[C@@H](Cc3ccc(C(F)(F)F)cc3)C(=O)N(C)CC(=O)N[C@@H](CCc3cc(F)c(C(F)(F)F)c(F)c3)C(=O)N2C1 [PP1285]
NRAS/KRAS (ratio of KD value for NRAS to KD value for KRAS) ([2]; KD ratio class): AA (a compound having 20 or more is denoted as AA)
HRAS/KRAS (ratio of KD value for HRAS to KD value for KRAS) ([3]; KD ratio class): A (a compound having 10 or more and less than 20 is denoted as A)

Kd [1, 6]: 0.84 nM
IC50 [4]: 17.4 nM
SMILES: CCO[C@@H]1C[C@H]2C(=O)NC3(CC(C)(C)C3)C(=O)N(C)[C@@H](C(CC)CC)C(=O)N(C)[C@H](C(=O)N(C)C)CC(=O)N(C)[C@@H](CC3CC3)C(=O)N[C@@H]([C@@H](C)CC)C(=O)N(C)CC(=O)N(C)[C@H]3C/C=C\CCN(C3=O)[C@@H](CC3CCC(F)(F)CC3)C(=O)N(C)CC(=O)N[C@@H](CCc3ccc(C(F)(F)F)c(Cl)c3)C(=O)N2C1 [PP2495]
NRAS/KRAS (ratio of KD value for NRAS to KD value for KRAS) [2]: A (a compound having 10 or more and less than 20 is denoted as A)
HRAS/KRAS (ratio of KD value for HRAS to KD value for KRAS) [3]: A (a compound having 10 or more and less than 20 is denoted as A)

Kd [1, 9]: 0.56 nM
IC50 [4]: 35.7 nM
SMILES: CCC[C@H]1C(=O)N[C@@H]([C@@H](C)CC)C(=O)N(C)CC(=O)N(C)[C@H]2C/C=C\CCN(C2=O)[C@@H](Cc2ccc(C)cc2)C(=O)N(C)CC(=O)N[C@@H](CCc2ccc(Cl)c(Cl)c2)C(=O)N2C[C@H](OCC)C[C@H]2C(=O)NC2(CC(C)(C)C2)C(=O)N(C)[C@@H](CC2CCC2)C(=O)N(C)[C@H](C(=O)N(C)C)CC(=O)N1C [PP2755]
NRAS/KRAS (ratio of KD value with respect to GDP-bound NRAS wild-type protein to KD value with respect to KRAS) [2]: A (a compound having 10 or more and less than 20 is denoted as A)
HRAS/KRAS (ratio of KD value with respect to GDP-bound HRAS wild-type protein to KD value with respect to KRAS) [3]: A (a compound having 10 or more and less than 20 is denoted as A)

Kd [1, 6]: 1.7 nM
IC50 [4]: 125 nM
SMILES: CCC(CC)[C@H]1C(=O)N(C)[C@H](C(=O)N(C)C)CC(=O)N(C)[C@@H](CC2CC2)C(=O)N[C@@H]([C@@H](C)CC)C(=O)N(C)CC(=O)N(C)[C@H]2C/C=C\CCN(C2=O)[C@@H](CC2CCC(F)(F)CC2)C(=O)N(C)CC(=O)N[C@@H](CCc2cc(F)c(C(F)(F)F)c(F)c2)C(=O)N2C[C@@H](C)C[C@H]2C(=O)NC2(CC(C)(C)C2)C(=O)N1C [PP2500]
NRAS/KRAS (ratio of KD value for NRAS to KD value for KRAS) [2]: A (a compound having 10 or more and less than 20 is denoted as A)
HRAS/KRAS (ratio of KD value for HRAS to KD value for KRAS) [3]: A (a compound having 10 or more and less than 20 is denoted as A)

Kd [1, 6]: 0.025 nM
IC50 [4]: 32 nM
SMILES: CC[C@H](C)[C@@H]1NC(=O)[C@H](CC)N(C)C(=O)C[C@@H](C(=O)N(C)C)N(C)C(=O)[C@H](C2CCCC2)N(C)C(=O)C2(CCC2)NC(=O)[C@@H]2C[C@@H](F)CN2C(=O)[C@H](CCc2cc(F)c(C(F)(F)F)c(F)c2)NC(=O)CN(C)C(=O)[C@H](Cc2ccc(C(F)(F)F)cc2)N2CC/C=C\C[C@@H](C2=O)N(C)C(=O)CN(C)C1=O [PP1131, (2S,8S,12R,14S,20S,23S,27S,30S,36S,38Z)-20-cyclopentyl-8-[2-[3,5-difluoro-4-(trifluoromethyl)phenyl]ethyl]-27-ethyl-12-fluoro-N,N,4,19,22,26,32,35-octamethyl-30-[(1S)-1-methylpropyl]-3,6,9,15,18,21,25,28,31,34,42-undecaoxo-2-[[4-(trifluoromethyl)phenyl]methyl]spiro[1,4,7,10,16,19,22,26,29,32,35-undecazatricyclo[34.5.1.0^10,14]dotetracont-38-ene-17,1′-cyclobutane]-23-carboxamide]
NRAS/KRAS (ratio of KD value for NRAS to KD value for KRAS) [2]: A (a compound having 10 or more and less than 20 is denoted as A)
HRAS/KRAS (ratio of KD value for HRAS to KD value for KRAS) [3]: B (a compound having 3 or more and less than 10 is denoted as B)

Kd [1, 8]: 0.08 nM
IC50 [4]: 6 nM
SMILES: CCO[C@@H]1C[C@H]2C(=O)NC3(CCC3)C(=O)N(C)[C@@H](C3CCCC3)C(=O)N(C)[C@H](C(=O)N(C)C)CC(=O)N(C)[C@@H](CC3CCCC3)C(=O)N[C@@H]([C@@H](C)CC)C(=O)N(C)CC(=O)N(C)[C@H]3C/C=C\CCN(C3=O)[C@@H](Cc3ccc(C)cc3)C(=O)N(C)CC(=O)N[C@@H](CCc3cc(F)c(C(F)(F)F)c(F)c3)C(=O)N2C1 [PP1411, (2S,8S,12R,14S,20S,23S,27S,30S,36S,38Z)-20-cyclopentyl-27-(cyclopentylmethyl)-8-[2-[3,5-difluoro-4-(trifluoromethyl)phenyl]ethyl]-12-ethoxy-N,N,4,19,22,26,32,35-octamethyl-30-[(1S)-1-methylpropyl]-3,6,9,15,18,21,25,28,31,34,42-undecaoxo-2-(p-tolylmethyl)spiro[1,4,7,10,16,19,22,26,29,32,35-undecazatricyclo[34.5.1.0^10,14]dotetracont-38-ene-17,1′-cyclobutane]-23-carboxamide]
NRAS/KRAS (ratio of KD value for NRAS to KD value for KRAS) ([2]; KD ratio class): A (a compound having 10 or more and less than 20 is denoted as A)
HRAS/KRAS (ratio of KD value for HRAS to KD value for KRAS) ([3]; KD ratio class): B (a compound having 3 or more and less than 10 is denoted as B)
